Read-outs that look alike come from different tables or passages of the source.
Key:
COX-2 = conditions: cited from earlier work
COX-1 = tested on: COX-1; parameters: method as in PMID 26994693; conditions: Figure 2; cited from earlier work
5-LOX = tested on: 5-LOX; parameters: method as in PMID 26994693; conditions: Figure 2; cited from earlier work
MCF7 cells [1] = tested on: MCF7 cells; parameters: method as in PMID 31259695; conditions: quoted from previous publication; cited from earlier work
A2780 cells [2] = tested on: A2780 cells; parameters: method as in PMID 31259695; conditions: quoted from previous publication; cited from earlier work
HT29 cells [3] = tested on: HT29 cells; parameters: method as in PMID 31259695; conditions: quoted from previous publication; cited from earlier work
[4] = tested on: MCF7, A2780 and HT29 cancer cell lines; parameters: method as in PMID 31259695; conditions: read-out: IC50 range against the three cancer cell lines; cited from earlier work
MCF7 cells [5] = assay: MTT antiproliferative activity assay, MCF7; type: cell-based; conditions: for IC50: Homo sapiens, MCF7, MTT, 72 h, mean ± S.D. (n = 3); for Selectivity Index MCF7: IC50 against MRC5 divided by IC50 against MCF7
Method: (§1) The antiproliferative activities of the eight Schiff bases 16a–h against three cancer cell lines (MCF-7, A2780, and HT29) were evaluated using the MTT assay. The selection of these cell lines was done to compare the antiproliferative activities of the new compounds with those of compound 10 [20]. The assay was performed following the previous report.
(§2) In the current study, the three cancer cell lines (MCF7, A2780, and HT29) used were obtained from the ATCC. The cell lines were cultured following our previous report. On the other hand, the normal MRC5 cells used in the current study were maintained in Eagle’s minimum essential medium following the previous report.
(§3) The antiproliferative activity was measured using the MTT assay according to the previous report. Briefly, the cancer/normal cell lines were cultured in 96-well (3 × 10^3/well) separately. The cells were treated by tested compounds 16a–h in final concentrations of 0, 0.1, 1, 10, 25, and 50 μM and incubated at 37 °C for 72 h. The MTT was added and the antiproliferative activities (IC50 values) of the new compounds were calculated.

A2780 cells [6] = assay: MTT antiproliferative activity assay, A2780; type: cell-based; conditions: for IC50: Homo sapiens, A2780, MTT, 72 h, mean ± S.D. (n = 3); for Selectivity Index A2780: IC50 against MRC5 divided by IC50 against A2780
Method: as §1, §2, §3

HT29 cells [7] = assay: MTT antiproliferative activity assay, HT29; type: cell-based; conditions: for IC50: Homo sapiens, HT-29, MTT, 72 h, mean ± S.D. (n = 3); for Selectivity Index HT29: IC50 against MRC5 divided by IC50 against HT29
Method: as §1, §2, §3

[8] = MTT assay against normal MRC5 cells; type: cell-based; conditions: human, 72 h treatment, mean ± SD (n = 3)
Method: Selectivity of the antiproliferative agents toward cancer cells plays a critical role in the development of these agents as potential anticancer drugs. […] In the current study, all of the new compounds 16a–h were evaluated for the antiproliferative activities against the normal MRC5 cells. […] The aim of this study was to assess the toxicity of the new compounds against normal MRC5 cells. In addition, the IC50 values were also used to calculate the selectivity index (SI) which measures the selective cytotoxicity of the new compounds.
as §2, §3

[9] = tested on: MCF7, A2780 and HT29 cancer cell lines; assay: MTT antiproliferative activity assay, three cancer cell lines together; type: cell-based; conditions: for Selectivity index range toward the three cancer cell lines: MCF7, A2780, HT29 compared to MRC5 cells; for IC50: MCF7, A2780 and HT29, MTT, 72 h, read-out: IC50 range against the three cancer cell lines
Method: as §1, §2, §3

MCF7 cells [10] = assay: Cell cycle analysis by flow cytometry; type: cell-based; conditions: MCF7 cells, 0.01, 0.05, 0.10 μM, 72 h
Method: Cell cycle analysis of MCF7 cells was also performed to investigate the mechanism which mediates the antiproliferative activity of the new compounds. […] The assay was performed according to the previous report. The results are represented in Figure 11.
The effect of compound 16g on the cell cycle distribution of MCF7 was performed following the previous report. Briefly, the cancer cells were cultured for 72 h with 0.00, 0.01, 0.05, and 0.10 μM final concentration of compound 16g. Next, the cells were washed with PBS x1 and trypsinized. The collected cells were spinned and fixed with 70% ethanol. Ribonuclease A was added (15 min) after suspending the cells in cold PBS x1. Following the addition of propidium iodide, analysis of the ice-cold cells was done by flow cytometry (BC, FC500, Brea, CA, USA).

A549 cells = conditions: cited from earlier work
MCF7 = conditions: Figure 2; cited from earlier work
[11] = Figure 2, read-out: IC50 (COX-2)

SMILES: COC1c2c(-c3ccccc3)c(-c3ccc(Cl)cc3)c(C)n2CC1(C)C (stereo not shown) [Compound 8]
- IC50 (COX-2; [11]): 7.5 µM
- IC50 (COX-1): 0.5 µM
- IC50 (5-LOX): 0.06 µM

SMILES: Cc1ccc(-c2c(-c3ccc(S(C)(=O)=O)cc3)cn3c2CCC3)cc1 [Compound 9]
- IC50 (COX-2; [11]): 0.005 µM
- IC50 (COX-1): 0.7 µM
- IC50 (5-LOX): 10 µM

SMILES: Cc1ccc(NC(=O)c2c(/N=C/c3ccc(Cl)cc3)c(C#N)c3n2CCC3)cc1 [Compound 10]
- IC50 (MCF7 cells [1]): 0.33 ± 0.12 µM
- IC50 (A2780 cells [2]): 0.44 ± 0.01 µM
- IC50 (HT29 cells [3]): 0.41 ± 0.02 µM
- IC50 [4]: 0.33 to 0.44 µM

SMILES: COc1ccc(NC(=O)c2c(N=Cc3ccc(N(C)C)cc3)c(C#N)c3n2CCC3)cc1 [Compound 16a, 7-Cyano-6-((4-(dimethylamino)benzylidene)amino)-N-(4-methoxyphenyl)-2,3-dihydro-1H-pyrrolizine-5-carboxamide]
- IC50 (MCF7 cells [5]): 40.5 ± 10.6 µM
- Selectivity Index MCF7 (MCF7 cells [5]): 0.03
- IC50 (A2780 cells [6]): 13.9 ± 1.92 µM
- Selectivity Index A2780 (A2780 cells [6]): 0.09
- IC50 (HT29 cells [7]): 0.19 ± 0.02 µM
- Selectivity Index HT29 (HT29 cells [7]): 6.68
- IC50 at 72 h [8]: 1.27 ± 0.48 µM
- Selectivity index range toward the three cancer cell lines [9]: 0.03–6.68
- IC50 [9]: 0.19 to 40.5 µM
- melting point: 226 to 228 °C

SMILES: CN(C)c1ccc(C=Nc2c(C#N)c3n(c2C(=O)Nc2ccc(F)cc2)CCC3)cc1 [Compound 16b, 7-Cyano-6-((4-(dimethylamino)benzylidene)amino)-N-(4-fluorophenyl)-2,3-dihydro-1H-pyrrolizine-5-carboxamide]
- IC50 (MCF7 cells [5]): 0.08 ± 0.01 µM
- Selectivity Index MCF7 (MCF7 cells [5]): 15.88
- IC50 (A2780 cells [6]): 0.9 ± 0.08 µM
- Selectivity Index A2780 (A2780 cells [6]): 1.41
- IC50 (HT29 cells [7]): 10.2 ± 0.12 µM
- Selectivity Index HT29 (HT29 cells [7]): 0.12
- IC50 at 72 h [8]: 1.27 ± 0.32 µM
- melting point: 244 to 246 °C

SMILES: COc1ccc(NC(=O)c2c(N=Cc3ccc(C)cc3)c(C#N)c3n2CCC3)cc1 [Compound 16c, 7-Cyano-N-(4-methoxyphenyl)-6-((4-methylbenzylidene)amino)-2,3-dihydro-1H-pyrrolizine-5-carboxamide]
- IC50 (MCF7 cells [5]): 0.03 ± 0.01 µM
- IC50 (A2780 cells [6]): 0.14 ± 0.02 µM
- IC50 (HT29 cells [7]): 2.27 ± 0.61 µM
- Selectivity Index HT29 (HT29 cells [7]): 10.60
- IC50 at 72 h [8]: 24.1 ± 1.31 µM
- melting point: 231 to 233 °C

SMILES: Cc1ccc(C=Nc2c(C#N)c3n(c2C(=O)Nc2ccc(F)cc2)CCC3)cc1 [Compound 16d, 7-Cyano-N-(4-fluorophenyl)-6-((4-methylbenzylidene)amino)-2,3-dihydro-1H-pyrrolizine-5-carboxamide]
- IC50 (MCF7 cells [5]): 7.05 ± 0.28 µM
- Selectivity Index MCF7 (MCF7 cells [5]): 0.34
- IC50 (A2780 cells [6]): 21.2 ± 2.43 µM
- Selectivity Index A2780 (A2780 cells [6]): 0.11
- IC50 (HT29 cells [7]): 0.17 ± 0.01 µM
- Selectivity Index HT29 (HT29 cells [7]): 14.24
- IC50 at 72 h [8]: 2.42 ± 0.56 µM
- melting point: 241 to 243 °C

SMILES: COc1ccc(NC(=O)c2c(N=Cc3ccc(F)cc3)c(C#N)c3n2CCC3)cc1 [Compound 16e, 7-Cyano-6-((4-fluorobenzylidene)amino)-N-(4-methoxyphenyl)-2,3-dihydro-1H-pyrrolizine-5-carboxamide]
- IC50 (MCF7 cells [5]): 0.15 ± 0.02 µM
- Selectivity Index MCF7 (MCF7 cells [5]): 18.47
- IC50 (A2780 cells [6]): 1.4 ± 0.21 µM
- Selectivity Index A2780 (A2780 cells [6]): 1.98
- IC50 (HT29 cells [7]): 0.34 ± 0.03 µM
- Selectivity Index HT29 (HT29 cells [7]): 8.15
- IC50 at 72 h [8]: 2.77 ± 0.09 µM
- melting point: 239 to 241 °C

SMILES: N#Cc1c(N=Cc2ccc(F)cc2)c(C(=O)Nc2ccc(F)cc2)n2c1CCC2 [Compound 16f, 7-Cyano-6-((4-fluorobenzylidene)amino)-N-(4-fluorophenyl)-2,3-dihydro-1H-pyrrolizine-5-carboxamide]
- IC50 (MCF7 cells [5]): 40.5 ± 7.7 µM
- Selectivity Index MCF7 (MCF7 cells [5]): 0.03
- IC50 (A2780 cells [6]): 0.49 ± 0.12 µM
- Selectivity Index A2780 (A2780 cells [6]): 2.73
- IC50 (HT29 cells [7]): 0.21 ± 0.12 µM
- Selectivity Index HT29 (HT29 cells [7]): 6.38
- IC50 at 72 h [8]: 1.34 ± 0.45 µM
- melting point: 253 to 255 °C

SMILES: COc1ccc(NC(=O)c2c(N=Cc3ccc(Cl)cc3)c(C#N)c3n2CCC3)cc1 [Compound 16g, 6-((4-Chlorobenzylidene)amino)-7-cyano-N-(4-methoxyphenyl)-2,3-dihydro-1H-pyrrolizine-5-carboxamide]
- IC50 (MCF7 cells [5]): 0.01 µM
- IC50 (A2780 cells [6]): 0.56 ± 0.01 µM
- Selectivity Index A2780 (A2780 cells [6]): 10.32
- IC50 (HT29 cells [7]): 0.37 ± 0.18 µM
- Selectivity Index HT29 (HT29 cells [7]): 15.62
- IC50 at 72 h [8]: 5.78 ± 0.63 µM
- Selectivity index range toward the three cancer cell lines [9]: 10.32–578.00
- Cell cycle perturbation (MCF7 cells [10]): cell cycle arrest at the G2/M phase
- melting point: 241 to 243 °C

SMILES: N#Cc1c(N=Cc2ccc(Cl)cc2)c(C(=O)Nc2ccc(F)cc2)n2c1CCC2 [Compound 16h, 6-((4-Chlorobenzylidene)amino)-7-cyano-N-(4-fluorophenyl)-2,3-dihydro-1H-pyrrolizine-5-carboxamide]
- IC50 (MCF7 cells [5]): 26.9 ± 1.67 µM
- Selectivity Index MCF7 (MCF7 cells [5]): 0.06
- IC50 (A2780 cells [6]): 42.6 ± 3.47 µM
- Selectivity Index A2780 (A2780 cells [6]): 0.04
- IC50 (HT29 cells [7]): 0.71 ± 0.29 µM
- Selectivity Index HT29 (HT29 cells [7]): 2.25
- IC50 at 72 h [8]: 1.6 ± 0.12 µM
- melting point: 262 to 264 °C

SMILES: O=C(c1ccccc1)c1ccc2n1CCC2C(=O)O (stereo not shown) [Ketorolac, ketorolac]
- IC50 (COX-2; [11]): 0.14 µM
- IC50 (A549 cells): ~13 µM

SMILES: CS(=O)(=O)CCNCc1ccc(-c2ccc3ncnc(Nc4ccc(OCc5cccc(F)c5)c(Cl)c4)c3c2)o1 [Lapatinib, lapatinib, reference compound]
- IC50 (MCF7 cells [5]): 5.98 ± 1.31 µM
- Selectivity Index MCF7 (MCF7 cells [5]): 2.49
- IC50 (A2780 cells [6]): 9.86 ± 1.72 µM
- Selectivity Index A2780 (A2780 cells [6]): 1.51
- IC50 (HT29 cells [7]): 13.2 ± 1.82 µM
- Selectivity Index HT29 (HT29 cells [7]): 1.13
- IC50 at 72 h [8]: 14.9 ± 2.45 µM
- IC50 [9]: 5.98 to 13.2 µM

SMILES: CC1(C)Cc2c(-c3ccccc3)c(-c3ccc(Cl)cc3)c(CC(=O)O)n2C1 [Licofelone]
- IC50 (COX-2; [11]): 4.7 µM
- IC50 (MCF7): 5.5 µM

SMILES: CS(=O)(=O)c1ccc(C2=C(c3ccccc3)C(=O)OC2)cc1 [Rofecoxib, rofecoxib]
- IC50 (COX-2; read-out: IC50 against COX-2): 0.53 µM

Reference: PMC8271847, “In Silico Approach Using Free Software to Optimize the Antiproliferative Activity and Predict the Potential Mechanism of Action of Pyrrolizine-Based Schiff Bases” (Molecules, 2021)
